# Like-named read-outs stand apart in the source and are kept apart here.
# Tests used:
# [1] = system: otosclerosis patients with dizziness; test: Example 1: stepped-up risedronate, dizziness patients; type: in vivo, human; conditions: 30 mg twice weekly, after 3 to 25 months, 76 patients
# Procedure: (§1) Patients were administered the bisphosphonate to see if dizziness could disappear or if associated symptoms of hearing loss or ear noise could be improved.
# (§2) In the first study, the following populations having the symptom stated were treated with a dosing schedule of 30 mg risedronate twice weekly (double the recommended dose for treating osteoporosis).
# [2] = system: otosclerosis patients with tinnitus; test: Example 1: stepped-up risedronate, tinnitus patients; type: in vivo, human; conditions: 30 mg twice weekly, after 3 to 19 months, 29 patients
# Procedure: This symptom can be a mild distraction, to an annoyance, to difficulty concentrating, to a total distraction. […] There are no current recognized treatments for tinnitus directed at a cause.
# as §2
# Tinnitus or Ear Noise after a Period of 3 to 19 Months
# [3] = system: otosclerosis patients with dizziness; test: Example 2: stepped-up risedronate follow-up, dizziness patients; type: in vivo, human; conditions: 30 mg twice weekly, after 2 to 32 months, 155 patients
# Description: (§3) The second investigation is cumulative to the first investigation, i.e., some patients reported in Example 1 are included in Example 2.
# Dizziness after a Period of 2 to 32 Months
# [4] = system: otosclerosis patients with Meniere's syndrome; test: Example 1: stepped-up risedronate, Meniere's syndrome patients; type: in vivo, human; conditions: 30 mg twice weekly, after 2 to 25 months, 36 patients
# Procedure: as §2
# [5] = system: otosclerosis patients with Meniere's syndrome; test: Example 2: stepped-up risedronate follow-up, Meniere's syndrome patients; type: in vivo, human; conditions: 30 mg twice weekly, after 2 to 33 months, 42 patients
# Description: as §3
# Meniere's Syndrome after a Period of 2 to 33 Months
# [6] = system: otosclerosis patients with hearing loss; test: Example 1: stepped-up risedronate, hearing loss patients; type: in vivo, human; conditions: 30 mg twice weekly, after 3 to 24 months, 46 patients
# Procedure: as §2
# Hearing Loss after a Period of 3 to 24 Months
# [7] = system: otosclerosis patients with tinnitus; test: Example 2: stepped-up risedronate follow-up, tinnitus patients; type: in vivo, human; conditions: 30 mg twice weekly, after 2 to 31 months, 84 patients
# Description: as §3
# Tinnitus or Ear Noise after 2 to 31 Months
# [8] = system: otosclerosis patients with hearing loss; test: Example 2: stepped-up risedronate follow-up, hearing loss patients; type: in vivo, human; conditions: 30 mg twice weekly, after 3 to 31 months, 125 patients
# Description: as §3
# Hearing Loss after a Period of 3 to 31 Months
# [9] = system: otosclerosis patients with dizziness; test: Example 4: intravenous zolendronic acid, dizziness patients; type: in vivo, human; conditions: 4 mg per injection, after 4 to 12 months, 3 patients
# Procedure: as §1
# In a fourth study, the following populations having the symptom stated were administered a zolendronic acid injection in 4 mg per injection no more frequently than every three months. […] Some patients were also administered etidronate.
# Dizziness after 4 to 12 Months
# [10] = system: otosclerosis patients with hearing loss; conditions: 4 mg per injection, after 2 to 10 months, 5 patients (two also on etidronate)
# Procedure: To illustrate the advantages of the invention, patients with the following symptoms were treated.
# In a fourth study, the following populations having the symptom stated were administered a zolendronic acid injection in 4 mg per injection no more frequently than every three months. The frequency of administration was dependent upon the patient response and the impending indication. Some patients were also administered etidronate. All patients received calcium plus vitamin D and/or calcium plus fluoride throughout the treatment.
# Hearing Loss after 2 to 10 Months
compound,measurement,setting,value
"O=P(O)(O)C(O)(Cc1cccnc1)P(=O)(O)O [risedronate, pyridiniyl bisphosphonate]",patients with disappearance of dizziness,[1],38%
same,patients with dizziness worse,[1],3%
same,patients with no change in dizziness,[1],8%
same,"patients with reduced dizziness, no problem in daily living",[1],38%
same,relief of dizziness,[1],greater than 90%
same,improvement in tinnitus or ear noise,[2],68%
same,patients with disappearance of tinnitus,[2],7%
same,patients with reduction of tinnitus to a point where it was no longer a problem,[2],62%
same,patients with tinnitus the same,[2],24%
same,patients with tinnitus worse,[2],7%
same,patients whose dizziness disappeared,[3],45%
same,patients with dizziness worse,[3],2%
same,patients with no change in dizziness,[3],5%
same,"patients with reduced dizziness, no problem in daily living",[3],39%
same,relief of dizziness,[3],84%
same,clogging or fullness in the ear worse,[4],no patient
same,dizziness the same or worse,[4],no instances
same,ear noise worse,[4],no patient
same,patients in whom clogging or fullness in the ear was not present,[4],42%
same,patients whose clogging or fullness in the ear disappeared,[4],17%
same,patients whose dizziness disappeared,[4],50%
same,patients whose ear noise cleared up,[4],8%
same,patients with clogging or fullness in the ear better,[4],22%
same,patients with clogging or fullness in the ear the same,[4],19%
same,patients with ear noise better,[4],72%
same,patients with ear noise unchanged,[4],19%
same,patients with hearing better,[4],83%
same,patients with hearing the same,[4],8%
same,patients with hearing worse than with prior bisphosphonate treatment,[4],8%
same,"patients with improvement, regular lifestyle free of disabling dizziness",[4],16%
same,clogging or fullness in the ear worse,[5],no patients
same,dizziness the same or worse,[5],no instances
same,patients whose clogging or fullness in the ear disappeared,[5],26%
same,patients whose dizziness disappeared,[5],57%
same,patients with clogging or fullness in the ear better,[5],19%
same,patients with clogging or fullness in the ear the same,[5],7%
same,patients with ear noise better,[5],60%
same,patients with ear noise gone,[5],10%
same,patients with ear noise the same,[5],19%
same,patients with ear noise worse,[5],2%
same,patients with hearing better,[5],69%
same,patients with hearing the same,[5],14%
same,patients with hearing worse than with prior bisphosphonate treatment,[5],12%
same,"patients with improvement, regular lifestyle free of disabling dizziness",[5],17%
same,patients with hearing improved,[6],70%
same,patients with hearing unchanged,[6],24%
same,patients with hearing worse,[6],6%
same,improvement in tinnitus or ear noise,[7],76%
same,patients with disappearance of tinnitus,[7],5%
same,patients with reduction of tinnitus to a point where it was no longer a problem,[7],71%
same,patients with tinnitus the same,[7],21%
same,patients with tinnitus worse,[7],2%
same,patients with hearing improved,[8],51%
same,patients with hearing unchanged,[8],47%
same,patients with hearing worse,[8],2%
O=P(O)(O)C(O)(Cn1ccnc1)P(=O)(O)O [zolendronic acid],relief of dizziness,[9],~100%
same,patients with hearing unchanged,[10],80%
same,patients with hearing worse,[10],20%

# — US7781419B2, “Use of bisphosphonates for otosclerosis” (priority 2003, dated 2010)
